Results as given in patent US20110142884A1, “Materials and Methods for Making Improved Micelle Compositions” (The Board of Trustees of the University of Illinois, priority 2002, published 2011).

Columns and labels:
[1] = test system: second order arterioles of the hamster cheek pouch microcirculation; experiment: Hamster cheek pouch microcirculation, arteriolar diameter during suffusion; type: in vivo; settings: native VIP alone, suffusion
Description: According to this example, the vasorelaxant effects of VIP in a SSM were determined according to the following method. Specifically, adult male golden Syrian hamsters were purchased from Sasco (Omaha, Nebr.). Adult male hamsters with spontaneous hypertension and their normotensive controls were purchased from the Canadian Hybrid Farms (Halls Harbour, NS, Canada). Hypertensive animals have been identified after cross-breeding of hamsters with hereditary cardiomyopathy and normal golden Syrian hamsters. These albino animals have previously been used in our laboratory (Rubinstein et al., Biochem. Biophys. Res. Commun. 183:1117-1123 (1992); Artwohl et al., FASEB J. 10:A629 (1996)). Animals were anesthetized with pentobarbital sodium (6 mg/100 g body weight, i.p.). A tracheotomy was performed to facilitate spontaneous breathing. A femoral vein was cannulated to inject supplemental anesthesia during the experiment (2-4 mg/100 g body weight/h). Body temperature was maintained constant (37-38° C.) and monitored via heating pad and a feed back controller throughout the experiment.
The bioactivity of the VIP in SSM by diffusing it in situ was determined by visualization of the microcirculation of the hamster cheek pouch. The microcirculation of the cheek pouch was visualized locally by a method previously developed in our laboratory (Suzuki et al., Life Sci. 57:1451-1457 (1995); Suzuki et al., Am. J. Physiol. 271:R393-R397 (1996); and Suzuki et al., Am. J. Physiol. 271:H282-H287 (1996)). Briefly, the left cheek pouch was spread over a small plastic baseplate, and an incision was made in the outer skin to expose the cheek pouch membrane. The connective avascular tissue layer was removed, and a plastic chamber was placed over the baseplate and secured in place by suturing the skin around the upper chamber. This forms a triple-layered complex: the baseplate, the exposed cheek pouch membrane, and the upper chamber. After these initial procedures, the hamster is transferred to a heated microscope stage. The chamber was connected to a reservoir containing warmed bicarbonate buffer (37-38° C.) that allowed continuous suffusion of the cheek pouch. The buffer was bubbled continuously with 95% N2-5% CO2 (pH 7.4). […]
The cheek pouch microcirculation was epi-illuminated with a 100-W mercury light source and viewed through a microscope (Nikon, Tokyo, Japan) at a magnification of ×40. […] The inner-wall diameter of second order arterioles ([…]), which modulated vascular resistance in the cheek pouch, (Raud, Acta Physiol. Scand. (Suppl.) 578:1-58 (1989); Suzuki et al., Life Sci. 57:1451-1457 (1995); Suzuki et al., Am. J. Physiol. 271:R393-R397 (1996)) was measured from the video display of the microscope image using a videomicrometer (VIA 100; Boeckeler Instruments, Tucson, Ariz.). […]

[2] = test system: mice with collagen-induced arthritis (CIA); experiment: Collagen induced arthritis (CIA) in mice; type: in vivo; settings: for hind paw thickness (PT) increase: tail vein
Description: SSM were prepared as described above in previous examples and by Onyuksel et al. (1999). VIP (1.0 nmol) was incubated with SSM for 2 h at 25° C. Size of VIP-SSM was determined by dynamic light-scattering. The effects of dilution on VIP-SSM were determined by size exclusion chromatography (SEC). Effects of VIP-SSM (1.0 nmol) and VIP in buffer (1.0 nmol and 5.0 nmol) were evaluated in mice with CIA treated on day 22 or 34 post-CIA induction. Clinical arthritis score (CAS) and hind paw thickness (PT) were recorded until day 45 post induction.
VIP, VIP-SSM (each, 0.5, 1.0 & 5.0 nmol), empty micelles, and buffer were injected into the tail vein on day 22 or day 34 post-CIA induction. Clinical arthritis score (CAS) and hind paw thickness (PT) were recorded until day 45 post-CIA induction. Systemic arterial pressure (SAP) was recorded by tail cuff in restrained mice. […] CAS reductions were similar to PT after treatment with α-helix VIP- and aqueous VIP-treated mice.

[3] = test system: mice with collagen-induced arthritis (CIA); settings: repeated intraperitoneal administration, 5.0 nmol, Delgado et al. 2001; cited from earlier work
man = settings: infusion in man for 10 hours; cited from earlier work

Substance: vasoactive intestinal peptide [VIP]
- effects on the arteriolar diameter [1]: no significant effects
- hind paw thickness (PT) increase ([2]; 0.5 nmol dose): 85.63±6.20%
- hind paw thickness (PT) increase ([2]; 1.0 nmol dose): 78.66±6.44%
- progression of CIA (PT and CAS data) ([2]; 1.0 nmol, treated on day 22): 78.09%
- progression of CIA (PT and CAS data) ([2]; 1.0 nmol, treated on day 34): 96.55%
- hind paw thickness (PT) increase ([2]; 5.0 nmol dose): 46.69±6.92%
- progression of CIA (PT and CAS data) ([2]; 5.0 nmol, treated on day 22): 56.37%
- progression of CIA (PT and CAS data) ([2]; 5.0 nmol, treated on day 34): 69.71%
- effect on CIA [3]: ameliorates CIA
- increase of forearm blood flow (man): 270%
- reduction of total peripheral resistance (man): 30%
